Measured values reported in the supplement of paper PMC8671470.

Experiments:
Conditions in all cases: 72 h
[1] = test system: myeloid leukemia patient primary cells Pat.13; assay: cell viability (% survival relative to DMSO control); higher = less cytotoxic
How it was run: (§1)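 Where an area under the curve appears, it was computed with the drc and PharmacoGx R packages from log-logistic fits. Those fits used four parameters. The underlying viability data came from CellTiter-Glo after 72 h, normalised to DMSO and 10 μM proteasome-inhibitor wells, with thawed, Ficoll-purified AML or CML patient mononuclear cells at 10,000 cells/well in RPMI 1640 with 10% FBS on 384-well plates pre-printed with 70 compounds at five tenfold concentrations (1–10,000 nM) in duplicate.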

[2] = test system: myeloid leukemia patient primary cells Pat.7; assay: as above
How it was run: as §1

[3] = test system: myeloid leukemia patient primary cells Pat.3; assay: as above
How it was run: as §1

[4] = test system: myeloid leukemia patient primary cells Pat.8; assay: as above
How it was run: as §1

[5] = test system: myeloid leukemia patient primary cells Pat.5; assay: as above
How it was run: as §1

[6] = test system: myeloid leukemia patient primary cells Pat.9; assay: as above
How it was run: as §1

HL-60 [7] = assay: area under dose-response curve (viability, 1 nM-10 uM) (fraction (0-1)); higher = more sensitive
How it was run: (§2)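 For each screen, HL-60 cells in RPMI 1640 with 10% FBS carried either DMSO or 100 nM of one of three metabolic inhibitors while the full library was applied at five tenfold concentrations, 1–10,000 nM, in duplicate. Plates were 384-well and were kept 72 h at 37 °C, 5% CO2. Viability, measured by CellTiter-Glo, was normalised to wells with DMSO and with 10 μM proteasome inhibitor. Where area under the curve appears, it was fitted by four-parameter log-logistic models in drc and PharmacoGx.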

[8] = test system: myeloid leukemia patient primary cells Pat.13; assay: area under dose-response curve (viability, 1 nM-10 uM) (fraction (0-1)); higher = more sensitive
Protocol: (§3)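 AUC (0–1, higher = more sensitive) of the 5-point dose–response (1 nM–10 µM, 72 h, CellTiter-Glo) in primary AML/CML patient mononuclear cells. 0.030103 is the floor for inactive compounds.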

[9] = test system: myeloid leukemia patient primary cells Pat.12; assay: as above
Protocol: as §3

[10] = test system: myeloid leukemia patient primary cells Pat.7; assay: as above
Protocol: as §3

[11] = test system: myeloid leukemia patient primary cells Pat.11; assay: as above
Protocol: as §3

[12] = test system: myeloid leukemia patient primary cells Pat.15; assay: as above
Protocol: as §3

[13] = test system: myeloid leukemia patient primary cells Pat.3; assay: as above
Protocol: as §3

[14] = test system: myeloid leukemia patient primary cells Pat.10; assay: as above
Protocol: as §3

[15] = test system: myeloid leukemia patient primary cells Pat.8; assay: as above
Protocol: as §3

[16] = test system: myeloid leukemia patient primary cells Pat.5; assay: as above
Protocol: as §3

[17] = test system: myeloid leukemia patient primary cells Pat.14; assay: as above
Protocol: as §3

[18] = test system: myeloid leukemia patient primary cells Pat.6; assay: as above
Protocol: as §3

[19] = test system: myeloid leukemia patient primary cells Pat.9; assay: as above
Protocol: as §3

[20] = test system: myeloid leukemia patient primary cells Pat.4; assay: as above
Protocol: as §3

[21] = test system: myeloid leukemia patient primary cells Pat.1; assay: as above
Protocol: as §3

[22] = test system: myeloid leukemia patient primary cells Pat.2; assay: as above
Protocol: as §3

HL-60 [23] = assay: cell viability (% survival relative to DMSO control); higher = less cytotoxic
How it was run: as §2

O=C(Cc1cccc(OC(F)(F)F)c1)Nc1ccc(CCCCc2nnc(NC(=O)Cc3ccccn3)s2)nn1 [CB-839]
Conditions | area under dose-response curve, co-treatment: AZD3965 100 nM | area under dose-response curve, co-treatment: DMSO vehicle | area under dose-response curve, co-treatment: GSK2194069 100 nM | area under dose-response curve, co-treatment: pictilisib 100 nM | cell viability, 1 nM [%] | cell viability, 10 nM [%] | cell viability, 100 nM [%] | cell viability, 1000 nM [%] | cell viability, 10000 nM [%]
HL-60 [7] | 0.0553 | < 0.0301 | 0.0569 | 0.0991 | – | – | – | – | –
[1] | – | – | – | – | 85.3 | 88.9 | 69 | 64.6 | 84
[2] | – | – | – | – | 58.6 | 74.7 | 6.64 | 21.2 | 38.3
[3] | – | – | – | – | 67.7 | 39.5 | 11.1 | 9.36 | 14.5
[4] | – | – | – | – | 82.7 | 86.7 | 76.8 | 87.8 | 81
[5] | – | – | – | – | 17.1 | 53.9 | 2.39 | 5.69 | 19.5
[6] | – | – | – | – | 62.2 | 35.3 | 1.99 | 7.13 | 14.1

Conditions | area under dose-response curve
[8] | < 0.0301
[9] | < 0.0301
[10] | 0.532
[11] | < 0.0301
[12] | 0.283
[13] | 0.702
[14] | 0.665
[15] | < 0.0301
[16] | < 0.0301
[17] | 0.434
[18] | < 0.0301
[19] | 0.752
[20] | < 0.0301
[21] | < 0.0301
[22] | < 0.0301

cell viability [%], HL-60 [23]
Conditions | 0.001 µM | 0.01 µM | 0.1 µM | 1 µM | 10 µM
co-treatment: AZD3965 100 nM | 105 | 103.64 | 103 | 93.2 | 71.4
co-treatment: DMSO vehicle | 97.2 | 102 | 97.9 | 93.6 | 88.7
co-treatment: GSK2194069 100 nM | 103 | 94.8 | 97.4 | 94.1 | 77.9
co-treatment: pictilisib 100 nM | 100.52 | 87.5 | 78.3 | 71.08 | 54

C=C1NC(=O)c2cc(CN(C)c3ccc(C(=O)N[C@@H](CCC(=O)O)C(=O)O)s3)ccc2N1 [Raltitrexed]
Conditions | area under dose-response curve, co-treatment: AZD3965 100 nM | area under dose-response curve, co-treatment: DMSO vehicle | area under dose-response curve, co-treatment: GSK2194069 100 nM | area under dose-response curve, co-treatment: pictilisib 100 nM | cell viability, 1 nM [%] | cell viability, 10 nM [%] | cell viability, 100 nM [%] | cell viability, 1000 nM [%] | cell viability, 10000 nM [%]
HL-60 [7] | 0.598 | 0.412 | 0.42 | 0.432 | – | – | – | – | –
[1] | – | – | – | – | > 100 | 85.4 | > 100 | 92.6 | 95.5
[2] | – | – | – | – | 64.8 | > 100 | 97.1 | 85.1 | > 100
[3] | – | – | – | – | 81.1 | > 100 | 58.5 | 38.7 | 58.7
[4] | – | – | – | – | 90.8 | 85.5 | 87.2 | 87.3 | > 100
[5] | – | – | – | – | 43.3 | 90.4 | > 100 | 87 | 92.7
[6] | – | – | – | – | 40.5 | 84 | 81.9 | 54.5 | 72.8

Conditions | area under dose-response curve
[8] | < 0.0301
[9] | < 0.0301
[10] | < 0.0301
[11] | < 0.0301
[12] | < 0.0301
[13] | 0.324
[14] | < 0.0301
[15] | < 0.0301
[16] | < 0.0301
[17] | < 0.0301
[18] | < 0.0301
[19] | < 0.0301
[20] | < 0.0301
[21] | < 0.0301
[22] | < 0.0301

cell viability [%], HL-60 [23]
Conditions | 0.001 µM | 0.01 µM | 0.1 µM | 1 µM | 10 µM
co-treatment: AZD3965 100 nM | 99.38 | 74.1 | 76.3 | 25.7 | 24.2
co-treatment: DMSO vehicle | 101 | 88.5 | 55.7 | 31.6 | 27.6
co-treatment: GSK2194069 100 nM | 98.5 | 79.7 | 53.7 | 30.6 | 23.3
co-treatment: pictilisib 100 nM | 101 | 78.4 | 51.8 | 34.2 | 26.11

CCCCCCCCCCCCC/C=C/[C@@H](O)[C@H](CO)N(C)C [N,N-Dimethylsphingosine]
Conditions | area under dose-response curve, co-treatment: AZD3965 100 nM | area under dose-response curve, co-treatment: DMSO vehicle | area under dose-response curve, co-treatment: GSK2194069 100 nM | area under dose-response curve, co-treatment: pictilisib 100 nM | cell viability, 1 nM [%] | cell viability, 10 nM [%] | cell viability, 100 nM [%] | cell viability, 1000 nM [%] | cell viability, 10000 nM [%]
HL-60 [7] | 0.132 | 0.132 | < 0.0301 | 0.0441 | – | – | – | – | –
[1] | – | – | – | – | 94.6 | 86.2 | 71.2 | 85.7 | 0.263
[2] | – | – | – | – | 90.6 | 65.6 | 86.3 | 11.6 | < 0
[3] | – | – | – | – | 57.4 | 87.2 | 60 | 17.4 | 0.177
[4] | – | – | – | – | 71.9 | 86.8 | 69 | 92.9 | 0.0301
[5] | – | – | – | – | 75.5 | 57.6 | 10.1 | 2.01 | 0.265
[6] | – | – | – | – | 68.4 | 77.7 | 25.2 | 21.6 | < 0

Conditions | area under dose-response curve
[8] | 0.131
[9] | 0.0829
[10] | 0.335
[11] | 0.0868
[12] | 0.113
[13] | 0.384
[14] | 0.468
[15] | 0.114
[16] | 0.664
[17] | 0.273
[18] | 0.15
[19] | 0.516
[20] | 0.153
[21] | 0.0643
[22] | 0.127

cell viability [%], HL-60 [23]
Conditions | 0.001 µM | 0.01 µM | 0.1 µM | 1 µM | 10 µM
co-treatment: AZD3965 100 nM | 95.3 | 103 | 100 | 100.26 | -1.76
co-treatment: DMSO vehicle | 98.6 | 98.5 | 102 | 97.42 | 54.1
co-treatment: GSK2194069 100 nM | 90.2 | 98.3 | 103 | 97.23 | 86.6
co-treatment: pictilisib 100 nM | 87.6 | 112 | 106 | 96.1 | 62.7

O=C(/C=C/c1cccnc1)NCCCCC1CCN(C(=O)c2ccccc2)CC1 [Daporinad]
Conditions | area under dose-response curve, co-treatment: AZD3965 100 nM | area under dose-response curve, co-treatment: DMSO vehicle | area under dose-response curve, co-treatment: GSK2194069 100 nM | area under dose-response curve, co-treatment: pictilisib 100 nM | cell viability, 1 nM [%] | cell viability, 10 nM [%] | cell viability, 100 nM [%] | cell viability, 1000 nM [%] | cell viability, 10000 nM [%]
HL-60 [7] | 0.825 | 0.78 | 0.79 | 0.75 | – | – | – | – | –
[1] | – | – | – | – | 95 | 34.4 | 9.16 | 3.22 | 7.15
[2] | – | – | – | – | 6.69 | < 0 | < 0 | < 0 | < 0
[3] | – | – | – | – | 3.7 | 2.72 | 2.93 | 3.29 | 2.8
[4] | – | – | – | – | 98.3 | 11 | 4.49 | 10.4 | 0.503
[5] | – | – | – | – | 0.265 | < 0 | 9.08 | < 0 | < 0
[6] | – | – | – | – | 0.773 | < 0 | 0.492 | 0.773 | 0.773

Conditions | area under dose-response curve
[8] | 0.754
[9] | 0.772
[10] | 0.995
[11] | 0.849
[12] | 0.792
[13] | 0.995
[14] | 0.956
[15] | 0.823
[16] | 0.995
[17] | 0.977
[18] | 0.609
[19] | 0.995
[20] | 0.947
[21] | 0.616
[22] | 0.754

cell viability [%], HL-60 [23]
Conditions | 0.001 µM | 0.01 µM | 0.1 µM | 1 µM | 10 µM
co-treatment: AZD3965 100 nM | 101 | 17.8 | 1.54 | 0.351 | 0.166
co-treatment: DMSO vehicle | 93.6 | 37.7 | 3.2 | 0.816 | 0.766
co-treatment: GSK2194069 100 nM | 86.2 | 31.1 | 2.41 | 0.71 | 1.09
co-treatment: pictilisib 100 nM | 89.7 | 42 | 2.3 | 0.651 | 2.01
